# How the values were obtained:
# patients [1] = details: intravenous bolus, dosage from 0.5 to 2 μg/kg; limited number of patients (FIG. 1); Kern et al 2006; cited from earlier work
# patients [2] = test: Phase II study: coronary blood flow velocity monitored with a flow wire; format: in vivo, human
# Procedure: that can be used in clinical perfusion imaging techniques (e.g., for diagnosing and assessing the extent of coronary artery disease) in U.S. Pat. No. 6,322,771. This agent has since been taken into Phase I and II clinical trials. In 2005, Dr. […] et al reported to the American Heart Association on the preliminary results of 127 patient SPECT Tc^99m sestamibi imaging studying comparing adenosine with Apadenoson using either 1 μg/kg or 2 μg/kg intravenous boluses of Apadenoson. […] In 2006, Dr. Kern et al reported to the American Heart Association the results of a Phase II study of Apadenoson, one goal of which was to determine an appropriate dose for Phase III clinical trials. Intravenous bolus dosages of 0.5, 1.0, 2.0, and 2.5 μg/kg were studied. […] In this Phase II study in 100 patients, conducted by Dr. Morton Kern, an independent investigator at UC Irvine, […] was administered by intracoronary injection, and coronary blood flow velocity was monitored with a flow wire. […] The previously reported increase in coronary blood flow velocity (CBFV) corresponding to an increase in dose of Apadenoson from 0.5 to 2 μg/kg was based on the increase in CBFV in a limited number of patients (see FIG. 1).
SMILES,average peak velocity for coronary blood flow versus dose (patients [1]),dose response curve (patients [2]; 1 μg/kg or 2 μg/kg administered),"dose response of coronary blood flow velocity (CBFV) (patients [2]; entire sample of patients (FIG. 2, 33 patients), dose ≥1 μg/kg, in particular between 1 and 2.5 μg/kg)","peak flow compared with adenosine (patients [2]; increasing bolus doses, one patient (FIG. 1))","coronary blood flow velocity (patients [2]; three intracoronary injections, one patient (FIG. 1))"
CCNC(=O)[C@H]1O[C@@H](n2cnc3c(N)nc(C#CC[C@H]4CC[C@H](C(=O)OC)CC4)nc32)[C@H](O)[C@@H]1O [Apadenoson],increase with a corresponding increase in dosage,no dose response curve is seen,no dose response is seen,achieved peak flow equivalent to adenosine,
"Nc1ncnc2c1ncn2[C@@H]1O[C@H](CO)[C@@H](O)[C@H]1O [adenosine, reference compound]",,,,,increased blood flow velocity
